PMC8942850, “Boron clusters as broadband membrane carriers” (Nature, 2022)
Read-outs that look alike come from different tables or passages of the source.

Experiments:
[1] = tested on: HeLa cells; assay: Confocal imaging of TAMRA-R8 / TAMRA-D-R8 / TAMRA uptake in living cells; settings: HeLa, 1, 10 or 50 µM TAMRA, 10 µM B12Br12^2− in HKR, 1 h
Excerpt: (§1) Representative images of two biological replicates. […] Scale bars, 50 μm.
Representative images of two biological replicates. […] Source data
(1 picture or pasted object on this page, not shown here)

[2] = gold standard in the field; cited from earlier work
Excerpt: U-tube transport experiments, across a bulk chloroform layer, unambiguously confirmed that the brominated cluster served as a non-covalent carrier across a hydrophobic bulk barrier (Extended Data Fig. 2a, b). To quantitatively characterize the transport efficiency of the new cluster carriers, the normalized fluorescence responses in the vesicle experiments (Fig. 2b) were plotted against cluster concentration to produce dose–response curves (Fig. 2c and Extended Data Fig. 3a). We extracted, by Hill analysis, the salient parameters: the maximal activity (Ymax), the concentration needed to achiev ...

[3] = HPTS/DPX transport assay in zwitterionic EYPC vesicles; format: in vitro ADME; parameters: key to Et: Et = Ymax × (pEC50/ft); pEC50 = −log EC50
Protocol: The well-established HPTS/DPX assay, which uses 8-hydroxypyrene-1,3,6-trisulfonate (HPTS) and p-xylene-bis-pyridinium (DPX), was implemented to monitor peptide-transport activation (Fig. 2a). […] A surfactant (Triton X-100) was added at the end of the experiment (t = 600 s) to release all vesicle content and normalize the fluorescence intensity data.
Fig. 2 Carrier activity obtained from the HPTS/DPX assay. a, Schematic representation of the transport of otherwise impermeable analytes facilitated by superchaotropic cluster anions with encapsulated HPTS/DPX probe/quencher pair used for signalling. […] Concentrations of carrier and cargo, when fixed, were 40 and 20 µM, respectively, unless explicitly stated. Source data
A thin lipid film was prepared by evaporating a lipid solution with a stream of nitrogen and then dried in vacuo overnight.
Fluorescence intensities were normalized to fractional emission as I(t) = (It − I0)/(I∞ − I0), where I0 = It before cluster addition and I∞ = It after lysis.
In the activator measurements, in which different activators were tested with the same cargo, the activator efficiency (Ea) is determined from their ability to activate the transport of an impermeable cargo molecule and is characterized by Ymax, its maximal activity, and EC50, the effective activator concentration. A potent activator reaches high Ymax at low EC50. To reflect both factors, the activator efficiency is defined as Ea = Ymax × (pEC50/fa), where pEC50 is the negative logarithm of EC50.
In the transport measurements, in which different types of cargo were tested with the same activator, the transport efficiency (Et) reports on the sensitivity of the cargo for being transported and is described by Ymax, the maximal activity, and EC50, the effective cargo concentration. An easily accessible cargo reaches high Ymax at low EC50. The transport efficiency is defined as a composition of both parameters according to Et = Ymax × (pEC50/ft), where pEC50 is the negative logarithm of EC50.
Extended Data Fig. 3 Transport activity. a, Transport activity, Y, in EYPC⊃HPTS/DPX vesicles as a function of cluster concentration at constant cargo concentration (WR7, 20 µM). b, Transport activity, Y, for B12Br12^2− (40 µM) in EYPC⊃HPTS/DPX vesicles as a function of the concentration of different cargo types; red lines correspond to the resulting fit with the Hill equation. Source data

[4] = tested on: Escherichia coli Top10 strain; assay: Kanamycin A delivery in E. coli (OD570 growth); format: cell-based; settings: for mean_norm_OD570: LB, 37 °C, 18 h, mean of triplicate
Protocol: As a proof-of-principle, we investigated its potential to reduce the minimum inhibitory concentration of kanamycin A, an aminoglycoside antibiotic. Aminoglycosides function by binding to the bacterial 30S ribosomal subunit; consequently, effective passage through the cell wall and plasma membrane is essential for aminoglycosides to reach their intracellular targets. […]
A preculture of E. coli Top10 cells was incubated overnight in LB medium with 50 µg ml^−1 streptomycin sulfate. […] After 18 h, the optical density at 570 nm, as an indicator of bacterial growth, was measured with a Tecan Infinite F200Pro microplate reader. Data were normalized for each concentration of B12Br12^2− relative to the control condition without antibiotic.
Solid points indicate mean ± s.d. of three technical replicates. […] Cross-bars indicate mean ± s.d. of three independent experiments (two with technical triplicates, one with technical duplicates); values obtained in each experiment are represented by different shapes. c, Viability of HeLa cells after incubation with different doses of MMAF in the presence of 0, 5 and 10 μM B12Br12^2−. Solid points indicate mean ± s.d. of three technical replicates. d, Corresponding IC50 values of MMAF. […] Source data

[5] = tested on: HeLa cells; assay: Phalloidin-TRITC delivery, confocal imaging of F-actin staining; format: cell-based; settings: living HeLa cells, HKR buffer, 3 h, 500 nM cargo concentration
Protocol: as §1
Cells were incubated with 7 µM phalloidin-TRITC (red) in the absence (left) and presence of 50 µM ^AcR8 (middle) or 50 µM of B12Br12^2− cluster (right) in HKR buffer for 3 h, subsequently stained with Hoechst (blue), washed with DMEM without phenol red, and imaged by confocal fluorescence microscopy; bright-field images in insets. Micrographs from each cell line were processed independently, experiments were performed twice. e, MTT viability assay of the corresponding cell lines (HeLa, GT1-7, ARPE-19 and A549, from left to right) at different concentrations (0, 25, 75, 250, and 500 µM) of B12Br12^2− (black) or ^AcR8 (red); data are mean ± s.d. of five measurements. f, Confocal images of HeLa cells after incubation with 500 nM phalloidin-TRITC and different concentrations B12Br12^2−; the images correspond to those of Fig. 4 in the main text, but are shown with increased brightness to facilitate observation of the actin filaments. Representative images of two biological replicates. All scale bars are […], except for panel f (50 µm). Source data

TAMRA [reference compound]
Transport of non-conjugated dye by B12Br12^2− [1]: not carried

O=C(O)CCCc1ccc2ccc3cccc4ccc1c2c34 [Pyrenebutyrate (1), pyrenebutyrate, reference compound]
Ea activator efficiency [2]: ≈ 5
Ea activator efficiency ([3]; Ea = Ymax × (pEC50/fa), fa = 20.6, WR7 (20 μM) cargo, 10% error (SD)): 4.9
Activation of oligolysine (WK7) membrane transport ([3]; WK7 cargo, HPTS/DPX assay): fails to trigger any signal
Ymax (%) maximal activity, carrier activity ([3]; carrier concentration varied, WR7 (20 μM) as common cargo, EYPC⊃HPTS/DPX vesicles, 13 µM lipid, 10 mM Tris, 107 mM NaCl, pH 7.4, HPTS fluorescence, Hill analysis, 10% error (SD) unless stated, n.a. = no detectable activity, d.l. = dye leakage, no determination possible): 100%
Activity as activator for the newly introduced targets ([3]; membrane-impermeable analytes (100 µM), HPTS/DPX assay): no activity
EC50 ([3]; read-out: EC50 (μM) effective carrier concentration to reach 50% of Ymax, carrier concentration varied, WR7 (20 μM) as common cargo, EYPC⊃HPTS/DPX vesicles, pH 7.4, Hill analysis, 10% error (SD) unless stated, n.a. = no detectable activity, d.l. = dye leakage, no determination possible): 103 µM

kanamycin A
Et transport efficiency ([3]; Et = Ymax × (pEC50/ft), ft = 19.8 so that WR7 equals 10.0, B12Br12^2− (40 μM) carrier, 5% error (SD) unless stated): 1.7 ± 0.2
Et ([3]; Fig.2 d, per analyte (cargo)): 1.7
Ymax (%) maximal activity, transport of cargo ([3]; cargo concentration varied, B12Br12^2− (40 μM) as common carrier, EYPC⊃HPTS/DPX vesicles, 13 µM lipid, 10 mM Tris, 107 mM NaCl, pH 7.4, HPTS fluorescence, Hill analysis, 10% error (SD) unless stated, n.t. = no detectable transport): 54 ± 6%
EC50 ([3]; read-out: EC50 (μM) effective cargo concentration to reach 50% of Ymax, cargo concentration varied, B12Br12^2− (40 μM) as common carrier, EYPC⊃HPTS/DPX vesicles, pH 7.4, Hill analysis, 10% error (SD) unless stated, n.t. = no detectable transport): 235 ± 70 µM
mean_norm_OD570 ([4]; Kanamycin 3 µg/mL, B12Br12 0, normalised to no-antibiotic control): 68.2744
mean_norm_OD570 ([4]; Kanamycin 3 µg/mL, B12Br12 500 mM, normalised to no-antibiotic control at same B12Br12): 9.048
mean_norm_OD570 ([4]; Kanamycin 3 µg/mL, B12Br12 750 mM, normalised to no-antibiotic control at same B12Br12): 0.7906
mean_norm_OD570 ([4]; Kanamycin 3 µg/mL, B12Br12 1000 mM, normalised to no-antibiotic control at same B12Br12): 0.4633
mean_norm_OD570 ([4]; Kanamycin 2.5 mg/mL, B12Br12 0 (so in the source), normalised to no-antibiotic control): 70.6541
mean_norm_OD570 ([4]; Kanamycin 2.5 mg/mL, B12Br12 500 mM (so in the source), normalised to no-antibiotic control at same B12Br12): 24.7877
mean_norm_OD570 ([4]; Kanamycin 2.5 mg/mL, B12Br12 750 mM (so in the source), normalised to no-antibiotic control at same B12Br12): 9.686
mean_norm_OD570 ([4]; Kanamycin 2.5 mg/mL, B12Br12 1000 mM (so in the source), normalised to no-antibiotic control at same B12Br12): 14.0089
mean_norm_OD570 ([4]; Kanamycin 3.5 mg/mL, B12Br12 0 (so in the source), normalised to no-antibiotic control): 58.481
mean_norm_OD570 ([4]; Kanamycin 3.5 mg/mL, B12Br12 500 mM (so in the source), normalised to no-antibiotic control at same B12Br12): 0.383
mean_norm_OD570 ([4]; Kanamycin 3.5 mg/mL, B12Br12 750 mM (so in the source), normalised to no-antibiotic control at same B12Br12): 0.005219
mean_norm_OD570 ([4]; Kanamycin 3.5 mg/mL, B12Br12 1000 mM (so in the source), normalised to no-antibiotic control at same B12Br12): 0.103
E. coli viability, absence of cluster ([4]; kanamycin A 3.5 µg ml^−1, no B12Br12^2−): 60%
E. coli viability, presence of the cluster carrier ([4]; kanamycin A 3.5 µg ml^−1 with B12Br12^2−): < 1%

Phalloidin-TRITC
F-actin staining after B12Br12^2−-triggered membrane passage [5]: excellent staining of the F-actin target
